Measurements as given in patent EP1671644A2, “Pharmaceutical compositions containing Lysostaphin alone or in combination with an antibiiotic for the treatment of Staphylococcal infections” (priority 1997, dated 1999).
Marks after values point to notes of the source that are not given here.

How the values were obtained:
[1] = system: methicillin-resistant VISA strain of S. aureus; test: Endocarditis in rabbits caused by a VISA strain; type: in vivo; settings: vancomycin 30 mg/kg twice daily
S. aureus Smith = test: Acute infection model in mice (intraperitoneal infection); type: in vivo
Description: The efficacy of lysostaphin was compared to that of vancomycin in an acute infection model in mice. S. aureus Smith was cultured overnight, with moderate agitation, in Veal Infusion broth (Difco) and diluted in broth containing 5% hog gastric mucin (Difco). Male Swiss~Webster mice (Taconic Farms, Germantown, NY) weighing approximately 20 grams were infected intraperitoneally with 10^5-10^6 viable cells, approximately tenfold the inoculum that reproducibly killed all untreated animals within 48 h. There were six mice in each treatment group. Lysostaphin was administered intravenously (in 0.1 ml 5% dextrose for injection) or subcutaneously (in 0.2 ml), within 10 min of infection. Vancomycin was administered subcutaneously.

[2] = system: methicillin-resistant S. aureus strain (MRSA 27619); test: Experimental aortic valve endocarditis in rabbits; type: in vivo; settings: vancomycin 30 mg/kg twice daily iv, three days
Description: Aortic valve endocarditis was established in New Zealand white rabbits weighing approximately 3 kg. Rabbits were anesthetized and the right carotid artery surgically exposed and cannulated with a polyethylene catheter which was advanced into the left ventricle of the heart. After at least 24 h, the rabbits were infected intravenously with 10^6-10^7 cells of a methicillin-resistant S. aureus strain (MRSA 27619). Twenty-four hours later, the animals were randomly assigned to different treatment groups: untreated control (9 rabbits); positive control, vancomycin 30 mg/kg twice daily (15); lysostaphin 5 mg/kg three times daily (11); lysostaphin 5 mg/kg once daily (10); lysostaphin 5 mg/kg once daily + vancomycin 30 mg/kg twice daily (11). Any rabbits whose infection was not confirmed by pre-treatment blood culture were eliminated.
All treatments were intravenous and were carried out for three days. The state of health of the rabbits was assessed at intervals. The rabbits were sacrificed 18 h after the last treatment. Aortic vegetations were removed and weighed and processed to determine the number of viable bacteria, expressed as log10CFU/gram. The limit of detection is 10^2 CFU/gram (log10CFU/gram=2.0). The mean titers of bacteria per gram were compared by one-way analysis of variance. The Student-Newman-Keuls test was used to adjust for multiple comparisons. […]

S. aureus strain AG461 = test: Time-kill experiment (Figure 1); type: cell-based, Staphylococcus aureus; settings: vancomycin 2 and 16 µg/ml (one and eight times MIC); three hours of contact
Description: The bactericidal activity of lysostaphin against S. aureus was also studied by means of time-kill experiments. In one experiment of this type, S. aureus strain AG461, a methicillin-resistant clinical isolate from Genoa, Italy, was inoculated into Mueller-Hinton broth (Difco) and grown at 37°C with gentle shaking until it reached approximately 10^8 viable cells per ml (CFU/ml), as estimated from the absorbance of the culture at 600 nm. The culture was then diluted with fresh broth to approximately 10^6 CFU/ml and 5 ml aliquots were placed in several different flasks for exposure to different concentrations of antibacterial agents. Incubation was continued, with gentle shaking, at 37°C, and samples were withdrawn at intervals for determination of viable cells. Serial 10-fold dilutions of the samples were made in sterile saline (0.9% NaCl in distilled water) and duplicate 0.1 ml aliquots of appropriate dilutions were plated on Tryptic Soy agar plates (Remel) using the agar inclusion method. (In this method, the aliquot to be plated is added to 2.5 ml of top agar, which is mixed and poured onto a plate. Top agar consisted of molten Tryptic Soy agar (Difco) diluted 2-fold with Difco Tryptic Soy broth to give a final agar concentration of 0.75%, w/v.) The plates were incubated for 24-48 hours at 36°C and the colonies were counted manually. […]

CN[C@H](CC(C)C)C(=O)N[C@H]1C(=O)N[C@@H](CC(N)=O)C(=O)N[C@H]2C(=O)N[C@H]3C(=O)N[C@H](C(=O)N[C@H](C(=O)O)c4cc(O)cc(O)c4-c4cc3ccc4O)[C@H](O)c3ccc(c(Cl)c3)Oc3cc2cc(c3O[C@@H]2O[C@H](CO)[C@@H](O)[C@H](O)[C@H]2O[C@H]2C[C@](C)(N)[C@H](O)[C@H](C)O2)Oc2ccc(cc2Cl)[C@H]1O [vancomycin]
CFU/g vegetation ([1]; expressed as log10 of the mean): 6.95 CFU/g vegetation | sterile/total vegetations [1]: 0/13 | % survival (S. aureus Smith; 0.63 mg/kg sc): 0% | % survival (S. aureus Smith; 1.25 mg/kg sc): 83% | % survival (S. aureus Smith; 2.5 mg/kg sc): 100% | % survival (S. aureus Smith; 5 mg/kg sc): 100% | % survival (S. aureus Smith; Table 4 experiment, 0.63 mg/kg, route not given): 0% | % survival (S. aureus Smith; Table 4 experiment, 1.25 mg/kg, route not given): 83% | % survival (S. aureus Smith; Table 4 experiment, 2.5 mg/kg, route not given): 100% | Mean log10CFU/gram of vegetation ± standard deviation [2]: 5.91 ± 1.67^a log10CFU/gram | Number of sterile vegetations /total animals treated [2]: 0/15 | bactericidal action (S. aureus strain AG461): very little killing of the bacteria
